Data set [1] deals with PC3 tumors. Put plainly: PC-3 xenograft with Paclitaxel, mean tumor volume. The conditions noted are these: for mean tumor size: 15 mg/kg i.p. oligonucleotide plus Paclitaxel; for mean tumor size, % of control: plus Paclitaxel. The class given is in vivo, mice. An excerpt:
In vivo treatments in a PC-3 xenograft model were done substantially as described by Zellweger et al., 2001. PC3 cells (2×10^6 cells) were xenografted by subcutaneous injection into recipient 6-8 week-old athymic nude (nu/nu) mice. When tumors reached 200 mm^3, mice were randomly assigned to one of two arms for treatment with 2′-MOE-modified IGF-IR antisense oligonucleotide (ATL1101) plus Paclitaxel, or mismatch control oligodeoxynucleotide ISIS 306064 plus Paclitaxel. Each experimental group consisted of 10 mice. After randomization, 15 mg/kg of ATL1101 antisense oligonucleotide or mismatch control oligonucleotide were injected intraperitoneal (i.p.) into each mouse once daily for the first 5 days and 3 times a week (every other day) thereafter for 7 weeks. On days 7, 9, 11, and on days 21, 23, and 25, 0.5 mg of polymeric micellar Paclitaxel was administered once daily by i.v. injection. Mean Tumor volume was measured once weekly for 8 weeks and calculated by the formula length×width×depth×0.5236.
In PC3 mice, after 5 weeks of treatment, mean tumor size in mice treated with Paclitaxel and mismatch control oligodeoxynucleotide was 326+/−40.9 mm^3 compared with 175+/−20.1 mm^3 in mice treated with Paclitaxel and ATL1101, or 53.7% of control (p<0.01). After 8 weeks of treatment, mean tumor size in mice treated with Paclitaxel and mismatch control oligodeoxynucleotide was 1417+/−222 mm^3 compared with 507+/−79.3 mm^3 in mice treated with Paclitaxel and ATL1101, or 35.8% of control (p<0.01).

Data set [2] deals with IGF-IR mRNA. Put plainly: IGF-IR mRNA in PC3 Ptx-R cells. The class given is cell-based, human. The conditions noted are these: 10 to 200 nM, compared to oligofectamine transfection reagent. An excerpt: The PC3 Ptx-R cells retain sensitivity to ATL1101-induced IGF-IR down regulation at the mRNA and protein level as shown in FIGS. 11A-C. […] ATL1101 and the control oligodeoxynucleotide ISIS 306064 had no effect on either of the alternative spliced isoform transcripts of the insulin receptor, IR-A, IR-B or IR-β protein or vinculin protein levels.

For data set [3], the system named is PC3 cells. Briefly: PC3 viable cells and apoptosis after transfection plus Paclitaxel.
Description: PC3 cells cultured in vitro were transfected at concentrations of IGF-IR antisense oligonucleotide (ATL1101) or control oligodeoxynucleotide (ISIS 306064) ranging from 12.5 nM to 50 nM or oligofectamine control once per day on two sequential days. After the 2nd transfection, the PC3 cells were treated with concentrations of between 0.1 to 50 nM Paclitaxel. The number of viable cells remaining were determined 72 hours after Paclitaxel treatment.
Data set [4] has as its system IGF-IR protein (IGF-IRB subunit). Put plainly: IGF-IR protein in transfected LNCaP and PC3 cells, immunoblot. The format is cell-based, human. The protocol: Established methods were used to test the activity of IGF-IR antisense oligonucleotide on LNCaP and PC-3 cell growth (crystal violet assay) and apoptosis (FACS). Dose- and sequence-specific suppression of IGF-IR mRNA and protein expression in ATL1101-treated LNCaP and PC3 PC cell lines in vitro were observed by QT-PCR and western blotting. Effects of the IGF-IR antisense oligonucleotide on various putative targets, including IGF-IR and downstream targets were evaluated using western blotting.
(§1) FIGS. 1B(i)-1B(ii) show sequence-specific and dose-dependent inhibition of IGF-IR protein by IGF-IR antisense oligonucleotide in LNCaP (FIG. 1B (i)) and PC-3 (FIG. […]) cells. […] Two days after the second transfection, whole cell detergent lysates were prepared and 30 μg of total protein was subjected to SDS-PAGE and immunoblotted for IGF-IRB subunit, IR-BB subunit and vinculin expression. Oligofectamine, oligofectamine treated cells only. In LNCaP cells, IGF-IR expression was >80% suppressed by 10 nM ATL1101 and was undetectable at 100 nM ATL1101. In PC3 cells, IGF-IR expression was suppressed ˜50% at 10 nM ATL1101, >80% at 50 nM ATL1101 and >90% at 200 nM. […] Vinculin expression is shown as a loading control.

In data set [5] the test system is insulin receptor-B (IR-B). Briefly: Insulin receptor-B protein in transfected LNCaP and PC3 cells, immunoblot. To be noted: highest ATL1101 concentration tested for each cell line (LNCaP, PC3). The class given is cell-based, human. The protocol:
as §1

Data set [6] has as its system LNCaP tumors. Briefly: LNCaP xenograft after castration, tumor volume and serum PSA. The class given is in vivo, mice. To be noted: 15 mg/kg i.p. once daily for 7 days and 3 times per week thereafter; vs control oligodeoxynucleotide. The protocol: One million PC-3 or LNCaP cells were injected subcutaneously in athymic mice. For LNCaP xenografts, when PSA values exceeded 50 ng/ml, mice were castrated and randomly selected for treatment with ATL1101 or control oligodeoxynucleotide (15 mg/kg) injected i.p. once daily for 7 days and 3 times per week thereafter. Blood samples were obtained from the tail vein of the mice once weekly to measure serum PSA by ELISA. For PC-3 xenografts, when tumors reached 100 mm^3, mice were randomly selected and treated with the same protocol as LNCaP.
The effects of IGF-IR antisense oligonucleotide treatment in LNCaP and PC-3 tumors in vivo are show in FIGS. 5A-5C. LNCaP cells were inoculated s.c. and when PSA values exceeded 50 ng/ml, mice were castrated and randomly selected for treatment with ATL1101 or control oligodeoxynucleotide (15 mg/kg) injected i.p. once daily for 7 days and 3 times per week thereafter. Blood samples were obtained from the tail vein of the mice once weekly to measure serum PSA by ELISA. PC-3 cells were inoculated s.c. and when tumors reached 100 mm^3, mice were randomly selected for treatment with the same protocol as LNCaP. Each point represents the mean tumor volume in each group containing 10 mice; bars, SE. * differs from control oligodeoxynucleotide treatment group (p<0.05) by Student's t test.

The subject of data set [7] is Cyclin D1, Cyclin E, p-RB, p27. Put plainly: Cell cycle proteins in LNCaP and PC-3 cells, immunoblot. The class given is cell-based, human. How it is done:
The Effect of IGF-IR silencing with IGF-IR antisense oligonucleotide (ATL1101) on LNCaP and PC3 cell apoptosis and cell cycle is shown in FIGS. 4A(i)-(ii), 4B, 4C(i)-(ii), and Table 2. Cells were transfected with indicated concentrations of ATL1101, control oligodeoxynucleotide or oligofectamine as in FIGS. 1A(i)-1B(ii). Two days after treatment, cell cycle analysis was determined by flow cytometry using propidium iodide staining. […] In FIGS. 4C(i)-(ii), LNCaP (FIG. 4C (i)) or PC-3 (FIG. 4C (ii)) cells were transfected with indicated concentration of ATL1101 or control oligodeoxynucleotide (ISIS 306064) for two days. Cells were then cultured in FBS media for one day and in serum-free media for one day. Whole cell lysates (30 μg) were subjected to SDS-PAGE and immunoblotted to assess Cyclin D1, Cyclin E, p-RB, total Rb, and p27 protein levels. Oligo, oligofectamine treated cells only.
On the technique in general: In western blotting, separated proteins are transferred to a membrane and probed.

A value given as a limit tells only on which side of the number the result lay.

“cgaaggaaacaatactccga (CGAAGGAAACAATACTCCGA; 2'-MOE modified, pattern not given here) [ISIS 175317, 2′-MOE-modified IGF-IR antisense oligonucleotide, also known as ATL1101]”: the results for the mean tumor size in data set [1] (after 5 weeks of treatment) and in data set [1] (after 8 weeks of treatment) were 175+/−20.1 mm^3 and 507+/−79.3 mm^3, respectively. Moreover, the “mean tumor size, % of control” value in data set [1] (after 5 weeks of treatment) was 53.7%; in data set [1] (after 8 weeks of treatment), 35.8%. Besides, the “IGF-IR mRNA levels” value in data set [2] is listed as “specifically reduced”. Moreover, the “fold higher Paclitaxel concentration (10 nM vs 1 nM) needed with 25 nM mismatch control for similar viability” value in data set [3] (25 nM ATL1101 with 1 nM Paclitaxel) was 10 fold. In data set [3] (in combination with ATL1101), the “amount of Paclitaxel required to induce tumor cell apoptosis” value is given as “significantly reduced”. For the same substance, the “suppression of IGF-IR protein expression” value in data set [4] (LNCaP cells, 10 nM, two days after second transfection) is more than 80%; in data set [4] (PC3 cells, 10 nM), approximately 50%; in data set [4] (PC3 cells, 50 nM), more than 80%; in data set [4] (PC3 cells, 200 nM), more than 90%. In addition, the IGF-IR protein expression result in data set [4] (LNCaP cells, 100 nM) was “undetectable”. For the same substance, in data set [5], the “suppression of IR-B expression” value is on record as less than 10%. Besides, in data set [6], the “PSA rise rates after castration” value is recorded as “significantly delayed”. Further, the “tumor growth after castration” value in data set [6] is given as “significantly delayed”. The “activation of Cyclin D1, Cyclin E, p-RB” value in data set [7] is “suppressed”. In addition, in data set [7], the p27 protein production result is given as “increased”.

The values above are taken from US9084770B2, “Modulation of insulin like growth factor I receptor expression in cancer” (Antisense Therapeutics, Ltd., priority 2008, dated 2015).
